Experiment [1] concerns larvae of the mustard beetle (Phaedon cochleariae). Nature of the experiment: Phaedon cochleariae larvae test. As to conditions: for pest or weed control at 100 g/ha: Phaedon cochleariae, 120 h, read-out: Kill in % after 5d.
For experiment [2], the system named is cotton aphid (Aphis gossypii). Nature of the experiment: Aphis gossypii test. As to conditions: 500 ppm, applied individually. The format is in vivo. From the text: The kill rates determined a.re entered into Colby's formula.
For experiment [3], the system named is larvae of the armyworm (Spodoptera frugiperda). Nature of the experiment: Spodoptera frugiperda larvae test. The format is in vivo. Conditions: applied individually; for Kill in % after 2d: 100 g/ha. The method, then: Spodoptera frugiperda Larvae Test
Cabbage leaves (Brassica oleracea) are treated by being sprayed with wits the preparation of active compound of the desired concentration and are populated with larvae of the armyworm (Spodoptera frugiperda) while the leaves are still moist.

Experiment [4] concerns green peach aphid (Myzus persicae). Nature of the experiment: Myzus persicae test (spray on infested cabbage leaves). It is filed as in vivo. Conditions: 100 g/ha, applied individually.
Experiment [5] has the same test system. Nature of the experiment: Myzus persicae test (run-off application). It is filed as in vivo. As to conditions: 500 ppm, applied individually. From the text: Myzus persicae Test (Run-Off Application)

`CC(C)(C)C(O)C(Oc1ccc(Cl)cc1)n1cncn1` (centres unmarked) [triadimenol]: the pest or weed control at 100 g/ha in experiment [1] was 0%.

`Cn1cc(C(=O)Nc2ccccc2C2CC2C2CC2)c(C(F)F)n1` (centres unmarked) [sedaxane]: the “Kill in % after 5d” value in experiment [1] (100 g/ha, applied individually) is given as 0%.

Regarding `O=C(NCCc1ncc(C(F)(F)F)cc1Cl)c1ccccc1C(F)(F)F` [fluopyram], the “Kill in % after 2d” value came to 0% in experiment [2] (after 2 d) and 0% in experiment [1] (100 g/ha, applied individually, after 2 d).

Take `OC(Cc1ccccc1Cl)(Cn1nc[nH]c1=S)C1(Cl)CC1` (centres unmarked) [prothioconazole]: in experiment [1], the pest or weed control at 100 g/ha was 0%.

With `Cc1nn(C)c(F)c1C(=O)Nc1ccccc1C(C)CC(C)C` (centres unmarked) [penflufen], the “Kill in % after 2d” value in experiment [3] worked out at 0%. For the same compound, in experiment [1] (100 g/ha, applied individually), the “Kill in % after 5d” value stood at 0%.

As to mancozeb, the “Kill in % after 1d” value in experiment [4] stood at 0%. The “Kill in % after 5d” value in experiment [1] (100 g/ha, applied individually) is recorded as 0%.

For the compound `C=CCOC(Cn1ccnc1)c1ccc(Cl)cc1Cl` (centres unmarked) [imazalil], the “Kill in % after 2d” value in experiment [3] came out at 0%. In addition, the pest or weed control at 100 g/ha in experiment [1] stood at 0%.

For the compound `O=C(NCc1ncc(C(F)(F)F)cc1Cl)c1c(Cl)cccc1Cl` [fluopicolide], the “Kill in % after 5d” value in experiment [1] (100 g/ha, applied individually) is 0%.

`O=C(Nc1ccccc1-c1ccc(Cl)cc1)c1cccnc1Cl` [boscalid]: in experiment [1], the pest or weed control at 100 g/ha was found to be 0%.

In the case of `O=c1c2cc(F)ccc2nc(-n2cncn2)n1-c1ccc(Cl)cc1Cl` [fluquinconazole], the pest or weed control at 100 g/ha in experiment [1] was 0%.

As for `O=[n+]1[n-]c(-n2ccnc2)nc2ccc(Cl)cc21` [triazoxide], the pest or weed control at 100 g/ha in experiment [1] is 0%.

As to `CO/N=C(/C1=NOCCO1)c1ccccc1Oc1ncnc(Oc2ccccc2Cl)c1F` [fluoxastrobin], the pest or weed control at 100 g/ha in experiment [1] is 0%.

On to `COCC(=O)N(c1c(C)cccc1C)[C@H](C)C(=O)OC` [mefenoxam], for which the “Kill in % after 1d” value in experiment [4] is given as 0%. In addition, the “Kill in % after 5d” value in experiment [1] (100 g/ha, applied individually) is on record as 0%.

As to `CSC1=N[C@@](C)(c2ccccc2)C(=O)N1Nc1ccccc1` [fenamidone], the pest or weed control at 100 g/ha in experiment [1] stood at 0%.

Take `N#Cc1ccccc1NC(=O)c1snc(Cl)c1Cl` [isotianil]: the “Kill in % after 5d” value in experiment [1] (100 g/ha, applied individually) is on record as 0%.

Consider fosetyl-aluminium, for which, in experiment [3] (500 g/ha, after 6 d), the “Kill in % after 6d” value stood at 0%.

With `CC(C)C1CCC(Cc2ccc(Cl)cc2)C1(O)Cn1cncn1` (centres unmarked) [ipconazole], in experiment [4], the “Kill in % after 1d” value is reported as 0%. For the same compound, the pest or weed control at 100 g/ha in experiment [1] was found to be 0%.

On to `CO/C=C(/C(=O)OC)c1ccccc1Oc1cc(Oc2ccccc2C#N)ncn1` [azoxystrobin], for which the “Kill in % after 1d” value in experiment [4] worked out at 0%. The “Kill in % after 5d” value in experiment [1] (100 g/ha, applied individually) is recorded as 0%.

Take `CNC(=O)/C(=N/OC)c1ccccc1Oc1ccccc1` [metominostrobin]: the “Kill in % after 1d” value in experiment [4] worked out at 0%.

On to `N#Cc1c[nH]cc1-c1cccc2c1OC(F)(F)O2` [fludioxonil], for which the pest or weed control at 100 g/ha in experiment [1] was found to be 0%.

As for `CC(C)(C)C(O)(CCc1ccc(Cl)cc1)Cn1cncn1` (centres unmarked) [tebuconazole], the “Kill in % after 5d” value in experiment [4] is listed as 0%. The pest or weed control at 100 g/ha in experiment [1] was 0%.

Regarding `Cn1c(=O)c2sc3c(=O)n(C)c(=O)c3sc2c1=O` [2,6-DIMETHYL-1H,5H-[1,4]DITHIINO[2,3-C:5,6-C′]DIPYRROLE-1,3,5,7(2H,6H)-TETRONE], the “Kill in % after 1d” value in experiment [2] (after 1 d) and in experiment [5] was 0% in each case. Also, in experiment [2] (after 3 d), the “Kill in % after 3 d” value amounted to 0%.

For the compound `O=C(Nc1ccccc1)N(Cc1ccc(Cl)cc1)C1CCCC1` [pencycuron], in experiment [1], the pest or weed control at 100 g/ha is 0%.

On to `CON=C(C(=O)OC)c1ccccc1CON=C(C)c1cccc(C(F)(F)F)c1` [trifloxystrobin], for which the pest or weed control at 100 g/ha in experiment [1] came to 0%.

With `CC(C)Oc1cccc(NC(=O)c2ccccc2C(F)(F)F)c1` [flutolanil], in experiment [4], the “Kill in % after 5d” value was 0%. Besides, the pest or weed control at 100 g/ha in experiment [1] was determined as 0%.

In the case of `COCC(=O)N(c1c(C)cccc1C)C(C)C(=O)OC` (centres unmarked) [metalaxyl], in experiment [1], the pest or weed control at 100 g/ha came out at 0%.

For `CCC1(C(=O)N[C@H](C)c2ccc(Cl)cc2)C(C)C1(Cl)Cl` (some centres unmarked) [carpropamid], the pest or weed control at 100 g/ha in experiment [1] stood at 0%.

For the origin of these results see patent publication US9700049B2, “Anthranilamides in combination with fungicides” (BAYER INTELLECTUAL PROPERTY GMBH, priority 2010, dated 2017).
